Results published in patent publication US10227344B2, “CK2 inhibitors, compositions and methods thereof” (Polaris Pharmaceuticals, Inc., priority 2016, dated 2019).

Columns and labels:
Assay type in all cases: cell-based
[1] = tested on: BxPC3; test: Cancer cell panel, cell viability (resazurin): Pancreatic, BxPC3; settings: 72 hours, labelled drug combined with Example 3
[2] = tested on: MDA-MB-231; test: Cancer cell panel, cell viability (resazurin): Breast, MDA-MB-231; settings: MDA-MB-231 (Breast), 72 hours; labelled drug combined with Example 3
[3] = tested on: Mia-Paca-2; test: Cancer cell panel, cell viability (resazurin): Pancreatic, Mia-Paca-2; settings: Mia-Paca-2 (Pancreatic), 72 hours; labelled drug combined with Example 3
Experimental: (§1) Cells were plated in 96-well plates and treated for 72 hours with a serially diluted CK2 inhibitor or anti-cancer drug or their combination. The suspension cell lines were treated right after plating, while the adherent cells were allowed to attach overnight prior to the start of the treatment.
(§2) Cell viability was determined by adding resazurin to cell cultures and measuring fluorescence with a plate reader. Relative cell viability was calculated by dividing the cell viability signal from a test sample by that of a non-treated control. […] Bliss Independence and Highest Single Agent models were used to determine if there is synergy, additivity or antagonism between the CK2 inhibitor and an anti-cancer drug.

[4] = tested on: Caki-1; test: Cancer cell panel, cell viability (resazurin): Renal, Caki-1; settings: Caki-1 (Renal), 72 hours; labelled drug combined with Example 3
Experimental: as §1, §2

[5] = tested on: Caov-3; test: Cancer cell panel, cell viability (resazurin): Ovarian, Caov-3; settings: Caov-3 (Ovarian), 72 hours; labelled drug combined with Example 3
[6] = tested on: A375; test: Cancer cell panel, cell viability (resazurin): Melanoma, A375; settings: 72 hours, labelled drug combined with Example 3
[7] = tested on: OVCAR-3; test: Cancer cell panel, cell viability (resazurin): Ovarian, OVCAR-3; settings: OVCAR-3 (Ovarian), 72 hours; labelled drug combined with Example 3
[8] = tested on: T47D; test: Cancer cell panel, cell viability (resazurin): Breast, T47D; settings: 72 hours, labelled drug combined with Example 3
[9] = tested on: BT-20; test: Cancer cell panel, cell viability (resazurin): Breast, BT-20; settings: BT-20 (Breast), 72 hours; labelled drug combined with Example 3
Experimental: as §1, §2

[10] = tested on: SK-MEL-3; test: Cancer cell panel, cell viability (resazurin): Melanoma, SK-MEL-3; settings: SK-MEL-3 (Melanoma), 72 hours; labelled drug combined with Example 3
Experimental: as §1, §2

[11] = tested on: PC3; test: Cancer cell panel, cell viability (resazurin): Prostate, PC3; settings: 72 hours, labelled drug combined with Example 3
Experimental: as §1, §2

[12] = tested on: Daudi; test: Cancer cell panel, cell viability (resazurin): Burkitt's Lymphoma, Daudi; settings: 72 hours, labelled drug combined with Example 3
[13] = tested on: ACHN; test: Cancer cell panel, cell viability (resazurin): Renal, ACHN; settings: 72 hours, labelled drug combined with Example 3
[14] = tested on: HL60; test: Cancer cell panel, cell viability (resazurin): Leukemia, HL60; settings: 72 hours, labelled drug combined with Example 3
Experimental: as §1, §2

[15] = tested on: Colo205; test: Cancer cell panel, cell viability (resazurin): Colon, Colo205; settings: 72 hours, labelled drug combined with Example 3
[16] = tested on: SkBr-3; test: Cancer cell panel, cell viability (resazurin): Breast, SkBr-3; settings: SkBr-3 (Breast), 72 hours; labelled drug combined with Example 3
[17] = tested on: ZR-75-1; test: Cancer cell panel, cell viability (resazurin): Breast, ZR-75-1; settings: ZR-75-1 (Breast), 72 hours; labelled drug combined with Example 3
[18] = tested on: HCT116; test: Cancer cell panel, cell viability (resazurin): Colon, HCT116; settings: 72 hours, labelled drug combined with Example 3
Experimental: as §1, §2

[19] = tested on: H1975; test: Cancer cell panel, cell viability (resazurin): NSCLC, H1975; settings: 72 hours, labelled drug combined with Example 3
[20] = tested on: A2780; test: Cancer cell panel, cell viability (resazurin): Ovarian, A2780; settings: 72 hours, labelled drug combined with Example 3
[21] = tested on: SK-MEL-24; test: Cancer cell panel, cell viability (resazurin): Melanoma, SK-MEL-24; settings: SK-MEL-24 (Melanoma), 72 hours; labelled drug combined with Example 3
[22] = tested on: H23; test: Cancer cell panel, cell viability (resazurin): NSCLC, H23; settings: 72 hours, labelled drug combined with Example 3
Experimental: as §1, §2

[23] = tested on: Raji; test: Cancer cell panel, cell viability (resazurin): Burkitt's Lymphoma, Raji; settings: 72 hours, labelled drug combined with Example 3
Experimental: as §1, §2

[24] = tested on: Panc-1; test: Cancer cell panel, cell viability (resazurin): Pancreatic, Panc-1; settings: Panc-1 (Pancreatic), 72 hours; labelled drug combined with Example 3
[25] = tested on: SKOV-3; test: Cancer cell panel, cell viability (resazurin): Ovarian, SKOV-3; settings: SKOV-3 (Ovarian), 72 hours; labelled drug combined with Example 3
[26] = tested on: MDA-MB-157; test: Cancer cell panel, cell viability (resazurin): Breast, MDA-MB-157; settings: MDA-MB-157 (Breast), 72 hours; labelled drug combined with Example 3
[27] = tested on: BT-474; test: Cancer cell panel, cell viability (resazurin): Breast, BT-474; settings: BT-474 (Breast), 72 hours; labelled drug combined with Example 3
[28] = tested on: H460; test: Cancer cell panel, cell viability (resazurin): NSCLC, H460; settings: 72 hours, labelled drug combined with Example 3
[29] = tested on: EOL-1; test: Cancer cell panel, cell viability (resazurin): Leukemia, EOL-1; settings: EOL-1 (Leukemia), 72 hours; labelled drug combined with Example 3
Experimental: as §1, §2

[30] = tested on: MDA-MB-453; test: Cancer cell panel, cell viability (resazurin): Breast, MDA-MB-453; settings: MDA-MB-453 (Breast), 72 hours; labelled drug combined with Example 3
[31] = tested on: MOLT4; test: Cancer cell panel, cell viability (resazurin): Leukemia, MOLT4; settings: 72 hours, labelled drug combined with Example 3
Experimental: as §1, §2

[32] = tested on: WM-115; test: Cancer cell panel, cell viability (resazurin): Melanoma, WM-115; settings: WM-115 (Melanoma), 72 hours; labelled drug combined with Example 3
Experimental: as §1, §2

[33] = tested on: H1299; test: Cancer cell panel, cell viability (resazurin): NSCLC, H1299; settings: 72 hours, labelled drug combined with Example 3
[34] = tested on: K562; test: Cancer cell panel, cell viability (resazurin): Leukemia, K562; settings: 72 hours, labelled drug combined with Example 3
[35] = tested on: DLD-1; test: Cancer cell panel, cell viability (resazurin): Colon, DLD-1; settings: DLD-1 (Colon), 72 hours; labelled drug combined with Example 3
[36] = tested on: H2122; test: Cancer cell panel, cell viability (resazurin): NSCLC, H2122; settings: 72 hours, labelled drug combined with Example 3
[37] = tested on: RPMI8226; test: Cancer cell panel, cell viability (resazurin): multiple myeloma, RPMI8226; settings: 72 hours, labelled drug combined with Example 3
[38] = tested on: LoVo; test: Cancer cell panel, cell viability (resazurin): Colon, LoVo; settings: 72 hours, labelled drug combined with Example 3

## COc1cccc2c1C(=O)c1c(O)c3c(c(O)c1C2=O)C[C@@](O)(C(=O)CO)C[C@@H]3O[C@H]1C[C@H](N)[C@H](O)[C@H](C)O1 [Doxorubicin, doxorubicin]
[1]
  synergy, additivity or antagonism of the combination of Example 3 with the anti-cancer drug: + + (Slight synergy relative to each agent alone (CI = 0.75-0.9 by Bliss Independence Model))
[2]
  synergy, additivity or antagonism of the combination of Example 3 with the anti-cancer drug: + (Additive relative to each agent alone (CI = 0.9-1 by Bliss Independence Model and <0.9 by Highest Single Agent Model))
[3]
  synergy, additivity or antagonism of the combination of Example 3 with the anti-cancer drug: + (Additive relative to each agent alone (CI = 0.9-1 by Bliss Independence Model and <0.9 by Highest Single Agent Model))
[4]
  synergy, additivity or antagonism of the combination of Example 3 with the anti-cancer drug: + (Additive relative to each agent alone (CI = 0.9-1 by Bliss Independence Model and <0.9 by Highest Single Agent Model))
[5]
  synergy, additivity or antagonism of the combination of Example 3 with the anti-cancer drug: + (Additive relative to each agent alone (CI = 0.9-1 by Bliss Independence Model and <0.9 by Highest Single Agent Model))
[6]
  synergy, additivity or antagonism of the combination of Example 3 with the anti-cancer drug: + (Additive relative to each agent alone (CI = 0.9-1 by Bliss Independence Model and <0.9 by Highest Single Agent Model))
[7]
  synergy, additivity or antagonism of the combination of Example 3 with the anti-cancer drug: + + (Slight synergy relative to each agent alone (CI = 0.75-0.9 by Bliss Independence Model))
[8]
  synergy, additivity or antagonism of the combination of Example 3 with the anti-cancer drug: + (Additive relative to each agent alone (CI = 0.9-1 by Bliss Independence Model and <0.9 by Highest Single Agent Model))
[9]
  synergy, additivity or antagonism of the combination of Example 3 with the anti-cancer drug: + + (Slight synergy relative to each agent alone (CI = 0.75-0.9 by Bliss Independence Model))
[10]
  synergy, additivity or antagonism of the combination of Example 3 with the anti-cancer drug: + + (Slight synergy relative to each agent alone (CI = 0.75-0.9 by Bliss Independence Model))
[11]
  synergy, additivity or antagonism of the combination of Example 3 with the anti-cancer drug: + (Additive relative to each agent alone (CI = 0.9-1 by Bliss Independence Model and <0.9 by Highest Single Agent Model))
[12]
  synergy, additivity or antagonism of the combination of Example 3 with the anti-cancer drug: + (Additive relative to each agent alone (CI = 0.9-1 by Bliss Independence Model and <0.9 by Highest Single Agent Model))
[13]
  synergy, additivity or antagonism of the combination of Example 3 with the anti-cancer drug: + (Additive relative to each agent alone (CI = 0.9-1 by Bliss Independence Model and <0.9 by Highest Single Agent Model))
[14]
  synergy, additivity or antagonism of the combination of Example 3 with the anti-cancer drug: + (Additive relative to each agent alone (CI = 0.9-1 by Bliss Independence Model and <0.9 by Highest Single Agent Model))
[15]
  synergy, additivity or antagonism of the combination of Example 3 with the anti-cancer drug: + + (Slight synergy relative to each agent alone (CI = 0.75-0.9 by Bliss Independence Model))
[16]
  synergy, additivity or antagonism of the combination of Example 3 with the anti-cancer drug: + (Additive relative to each agent alone (CI = 0.9-1 by Bliss Independence Model and <0.9 by Highest Single Agent Model))
[17]
  synergy, additivity or antagonism of the combination of Example 3 with the anti-cancer drug: + + (Slight synergy relative to each agent alone (CI = 0.75-0.9 by Bliss Independence Model))
[18]
  synergy, additivity or antagonism of the combination of Example 3 with the anti-cancer drug: + + (Slight synergy relative to each agent alone (CI = 0.75-0.9 by Bliss Independence Model))
[19]
  synergy, additivity or antagonism of the combination of Example 3 with the anti-cancer drug: + (Additive relative to each agent alone (CI = 0.9-1 by Bliss Independence Model and <0.9 by Highest Single Agent Model))
[20]
  synergy, additivity or antagonism of the combination of Example 3 with the anti-cancer drug: + (Additive relative to each agent alone (CI = 0.9-1 by Bliss Independence Model and <0.9 by Highest Single Agent Model))
[21]
  synergy, additivity or antagonism of the combination of Example 3 with the anti-cancer drug: + (Additive relative to each agent alone (CI = 0.9-1 by Bliss Independence Model and <0.9 by Highest Single Agent Model))
[22]
  synergy, additivity or antagonism of the combination of Example 3 with the anti-cancer drug: + + (Slight synergy relative to each agent alone (CI = 0.75-0.9 by Bliss Independence Model))
[23]
  synergy, additivity or antagonism of the combination of Example 3 with the anti-cancer drug: + + (Slight synergy relative to each agent alone (CI = 0.75-0.9 by Bliss Independence Model))
[24]
  synergy, additivity or antagonism of the combination of Example 3 with the anti-cancer drug: + + (Slight synergy relative to each agent alone (CI = 0.75-0.9 by Bliss Independence Model))
[25]
  synergy, additivity or antagonism of the combination of Example 3 with the anti-cancer drug: + (Additive relative to each agent alone (CI = 0.9-1 by Bliss Independence Model and <0.9 by Highest Single Agent Model))
[26]
  synergy, additivity or antagonism of the combination of Example 3 with the anti-cancer drug: + + + (Synergy relative to each agent alone (CI = 0.4-0.74 by Bliss Independence Model))
[27]
  synergy, additivity or antagonism of the combination of Example 3 with the anti-cancer drug: + + (Slight synergy relative to each agent alone (CI = 0.75-0.9 by Bliss Independence Model))
[28]
  synergy, additivity or antagonism of the combination of Example 3 with the anti-cancer drug: + + (Slight synergy relative to each agent alone (CI = 0.75-0.9 by Bliss Independence Model))
[29]
  synergy, additivity or antagonism of the combination of Example 3 with the anti-cancer drug: + + (Slight synergy relative to each agent alone (CI = 0.75-0.9 by Bliss Independence Model))
[30]
  synergy, additivity or antagonism of the combination of Example 3 with the anti-cancer drug: + + + (Synergy relative to each agent alone (CI = 0.4-0.74 by Bliss Independence Model))
[31]
  synergy, additivity or antagonism of the combination of Example 3 with the anti-cancer drug: + + + (Synergy relative to each agent alone (CI = 0.4-0.74 by Bliss Independence Model))
[32]
  synergy, additivity or antagonism of the combination of Example 3 with the anti-cancer drug: + + + (Synergy relative to each agent alone (CI = 0.4-0.74 by Bliss Independence Model))
[33]
  synergy, additivity or antagonism of the combination of Example 3 with the anti-cancer drug: + (Additive relative to each agent alone (CI = 0.9-1 by Bliss Independence Model and <0.9 by Highest Single Agent Model))
[34]
  synergy, additivity or antagonism of the combination of Example 3 with the anti-cancer drug: + (Additive relative to each agent alone (CI = 0.9-1 by Bliss Independence Model and <0.9 by Highest Single Agent Model))
[35]
  synergy, additivity or antagonism of the combination of Example 3 with the anti-cancer drug: + + (Slight synergy relative to each agent alone (CI = 0.75-0.9 by Bliss Independence Model))
[36]
  synergy, additivity or antagonism of the combination of Example 3 with the anti-cancer drug: + + (Slight synergy relative to each agent alone (CI = 0.75-0.9 by Bliss Independence Model))
[37]
  synergy, additivity or antagonism of the combination of Example 3 with the anti-cancer drug: + + + (Synergy relative to each agent alone (CI = 0.4-0.74 by Bliss Independence Model))
[38]
  synergy, additivity or antagonism of the combination of Example 3 with the anti-cancer drug: + (Additive relative to each agent alone (CI = 0.9-1 by Bliss Independence Model and <0.9 by Highest Single Agent Model))
